In PubChem BioAssay (NCI):
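Cultured in 96-well plates, cells were exposed to test compound for 48 hours across five concentrations. GI50 is the concentration that inhibits growth by half. TGI is the concentration that stops growth completely.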

How the values were obtained:
Experiment in all cases: NCI-60 cell line screen, 48 h
[1] = test system: M14 melanoma
[2] = test system: MALME-3M melanoma
[3] = test system: NCI-H226 lung
[4] = test system: OVCAR-3 ovarian
[5] = test system: SF-268 CNS
[6] = test system: SK-MEL-2 melanoma
[7] = test system: SNB-19 CNS
[8] = test system: TK-10 renal
[9] = test system: UO-31 renal
[10] = test system: NCI-H522 lung

SMILES	TGI [1] [µM]	TGI [2] [µM]	TGI [3] [µM]	TGI [4] [µM]	TGI [5] [µM]	TGI [6] [µM]	TGI [7] [µM]	TGI [8] [µM]	TGI [9] [µM]	TGI [10] [µM]	GI50 [1] [µM]	GI50 [2] [µM]	GI50 [3] [µM]	GI50 [10] [µM]	GI50 [4] [µM]	GI50 [5] [µM]	GI50 [6] [µM]	GI50 [7] [µM]	GI50 [9] [µM]	GI50 [8] [µM]
NC1=NN(c2ccccc2)C(=O)C1C(=O)C(=O)NC1C2CC3CC(C2)CC1C3 (centres undefined)	> 100	> 100	> 100	> 100	> 100	> 100	> 100	> 100	> 100	–	–	–	–	–	–	–	–	–	–	–
O=S1Cc2ccccc2CS1 (centres undefined)	28.3	26.4	> 100	29	> 100	–	> 100	55.6	56.4	19.7	–	–	–	–	–	–	–	–	–	–
C=CCOC1=C2CC[C@H](O)[C@@]2(C)CCC1=O	> 100	> 100	> 100	> 100	> 100	–	> 100	> 100	> 100	> 100	–	–	–	–	–	–	–	–	–	–
Cc1ccc(NC(=O)C2C(=O)C(=O)N(c3ccc(C)cc3)C2=O)cc1 (centres undefined)	> 100	> 100	–	–	> 100	> 100	> 100	> 100	> 100	> 100	–	–	–	–	–	–	–	–	–	–
CCOC(=O)NC(=O)c1cn(CCCCCCCCCCC(=O)N2CCN(CCn3cc(C(=O)NC(=O)OCC)c(=O)[nH]c3=O)CC2)c(=O)[nH]c1=O	> 100	–	–	> 100	–	–	> 100	> 100	–	–	–	–	–	–	–	–	–	–	–	–
O=C(Nc1cccc(-n2cc(-c3ccncc3)c(-c3cc(O)cc(Cl)c3)n2)c1)Nc1ccc(Cl)c(Cl)c1	3.28	5.48	7.16	5.05	32.8	4.04	19	–	6.51	3.14	1.44	1.8	2.28	1.1	1.96	3.22	1.8	3.18	1.91	–
CCCCN(CCCC)c1cc(C(=O)CCCCCN)c2ccccc2n1	3.29	4.16	–	3.79	12.7	4.45	3.12	3.5	3.68	3.52	1.83	2.16	–	1.91	2.02	3.38	2.56	1.65	1.85	1.94
CCOC(=O)/C(=C/c1cc(OC)ccc1OC)CC(=O)O	> 100	> 31.6	–	> 100	> 100	34.5	> 100	> 100	> 100	> 100	–	–	–	–	–	–	–	–	–	–
CC1C(=O)CCC1C(Sc1ccccc1)(Sc1ccccc1)Sc1ccccc1 (centres undefined)	> 100	> 100	–	> 100	46.3	> 100	> 100	> 100	5.9	26.8	–	–	–	–	–	–	–	–	–	–
COC(=O)C1=C2C3=C(C(=O)c4ccccc4C3=O)N(Cc3ccccc3)C2(OC(C)=O)C=CC1=O (centres undefined)	34	26.5	32.6	–	23.6	> 100	> 100	33.8	> 100	> 100	15.2	10.8	11.6	5.56	–	2.86	42.5	31.3	18.2	–
C=CC[Se]C(=O)c1ccccc1OC(C)=O	3.06	3.38	6.44	3.51	6.5	4.33	1.66	–	2.81	4.62	1.58	1.66	2.62	1.93	1.95	2.49	2.05	0.493	1.48	–
CCOC(=O)CC(=O)N(c1ccc(OC)cc1)C(C(=O)OC)c1ccccc1 (centres undefined)	> 100	–	–	> 100	> 100	> 100	> 100	> 100	> 100	> 100	–	–	–	–	–	–	–	–	–	–
COC(=O)C1C(=O)O[C@@H](c2ccc(OC)cc2)C1C(=O)OC (some centres undefined)	> 100	> 100	> 100	> 100	> 100	–	> 100	> 100	> 100	–	–	–	–	–	–	–	–	–	–	–
N#Cc1cc(-c2ccccc2)[nH]c1-c1nccc2ccccc12	84.7	84.5	–	> 100	> 100	81	> 100	> 100	> 100	98	14.9	13	–	12.4	21.9	22.6	11.9	31.3	6.81	25.3
O=[N+]([O-])c1ccc(Oc2cccnc2)c([N+](=O)[O-])c1	8.61	17.6	25.5	6.99	36.4	14.8	> 100	–	16.8	9.55	2.74	2.83	2.97	3.02	2.75	4.2	3.97	24.3	3.07	–
O=c1oc2c(Br)c(O)c(Br)cc2c2ccccc12	> 100	64.8	80.5	40.7	69	62.7	93.4	> 100	–	51.3	–	–	–	–	–	–	–	–	–	–
COc1ccc(S(=O)(=O)Nc2cc(/C=C\c3cc(OC)c(OC)c(OC)c3)cc(OC)c2OC)cc1OC	> 100	–	> 100	> 100	> 100	> 100	> 100	> 100	> 100	> 100	0.419	–	1.87	0.369	0.418	20.8	5.29	1.11	1.59	10.3
Nc1ccn(C2OC(CO[P+](=O)OC3C(CO[P+](=O)OC4C(CO[P+](=O)OC5C(CO[P+](=O)OC6C(CO[P+](=O)OC7C(CO[P+](=O)OC8C(CO[P+](=O)OC9C(CO[P+](=O)OC%10C(CO[P+](=O)OC%11C(CO)OC(n%12ccc(N)nc%12=O)C%11(F)F)OC(n%11ccc(N)nc%11=O)C%10(F)F)OC(n%10ccc(N)nc%10=O)C9(F)F)OC(n9ccc(N)nc9=O)C8(F)F)OC(n8ccc(N)nc8=O)C7(F)F)OC(n7ccc(N)nc7=O)C6(F)F)OC(n6ccc(N)nc6=O)C5(F)F)OC(n5ccc(N)nc5=O)C4(F)F)OC(n4ccc(N)nc4=O)C3(F)F)C(O)C2(F)F)c(=O)n1 (centres undefined)	0.27	> 100	> 100	> 100	–	–	> 100	> 100	–	> 100	0.0397	50.9	18.3	0.224	–	–	35	–	–	> 100
CC(=O)N(/N=C\c1ccc([N+](=O)[O-])cc1)c1ccccc1	> 100	> 100	> 100	> 100	> 100	> 100	> 100	> 100	> 100	–	–	–	–	–	–	–	–	–	–	–
Clc1ccc(N/N=C/c2ccccn2)nc1	–	–	> 100	> 100	> 100	> 100	> 100	> 100	1.57	37.4	0.375	–	0.401	0.323	0.295	0.365	0.675	0.674	0.303	0.442
NC(Cc1cc(Br)c(O)c(Br)c1)C(=O)O (centres undefined)	> 100	> 100	> 100	> 100	> 100	> 100	> 100	> 100	–	> 100	–	–	–	–	–	–	–	–	–	–
O=C1C(=O)c2ccccc2C=C1[N+](=O)[O-]	> 100	–	> 100	85.2	> 100	99.5	> 100	> 100	> 100	> 100	–	–	–	–	–	–	–	–	–	–
COc1ccc(C2Cc3cc(OC)c(OC)c(OC)c3C2=O)cc1 (centres undefined)	> 100	> 100	> 100	> 100	> 100	> 100	> 100	> 100	> 100	–	–	–	–	–	–	–	–	–	–	–
O=C(/C=C/c1ccccc1O)c1ccccc1	21.4	20.4	26.1	12.3	21.2	–	25.3	24.7	15.7	22	8.23	5.5	12.8	9.1	3.14	6.34	–	12.6	1.68	11.9
O=[n+]1cnn([O-])c2ccccc21	64	47.6	> 100	–	> 100	96.2	> 100	> 100	94.4	45.2	–	–	–	–	–	–	–	–	–	–
c1ccc2c(c1)nnn1c3cnccc3nc21	> 100	> 100	–	55.8	> 100	> 100	> 100	94.7	> 100	28.4	–	–	–	–	–	–	–	–	–	–
